Molecules are shown by their SMILES. Values joined by “and” are separate entries in the source; they are usually repeats but may differ in a detail not shown here. Equal entries are not always repeated.

The results in this text go back to PubChem BioAssay AID1919015 (Molecular Pharmacology Branch, DTP, NCI, 2023).

The test system of the test is OVCAR-5 complex spheroids with HUVEC/MSC, viability, % test/control. Briefly: Anticancer human tumor OVCAR-5 cell line growth inhibition [AhR].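 For all read-outs here: spheroids exposed to compounds for 7 days.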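 For viability, T/C: 100% = DMSO vehicle control wells.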 To be noted: for viability, T/C: stronger effect = lower value. In a few lines: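 Complex tumor spheroids co-cultured with HUVEC and human MSC stroma; AhR antagonists tested in combination with standard-of-care and investigational agents. Top concentration at or near clinical Cmax (else 10 microM), half-log dilutions; growth expressed as percent test/control.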

The mark [1] stands for this setting: curve of first compound, second compound 0.1 µM.
Setting [2] is: curve of first compound, second compound 0.316 µM.
The mark [3] stands for this setting: curve of first compound, second compound 1 µM.
Setting [4] is: curve of first compound, second compound 3.16 µM.
Where [5] appears, read: curve of first compound, second compound 10 µM.
The mark [6] stands for this setting: second compound 0.1 µM, first compound 0.0316 µM.
The mark [7] stands for this setting: second compound 0.1 µM, first compound 0.1 µM.
Where [8] appears, read: second compound 0.1 µM, first compound 0.316 µM.
Where [9] appears, read: second compound 0.1 µM, first compound 1 µM.
[10] abbreviates: second compound 0.1 µM, first compound 3.16 µM.
Where [11] appears, read: second compound 0.1 µM, first compound 10 µM.
[12] abbreviates: second compound 0.316 µM, first compound 0.0316 µM.
The mark [13] stands for this setting: second compound 0.316 µM, first compound 0.1 µM.
Where [14] appears, read: second compound 0.316 µM, first compound 0.316 µM.
Where [15] appears, read: second compound 0.316 µM, first compound 1 µM.
The mark [16] stands for this setting: second compound 0.316 µM, first compound 3.16 µM.
Setting [17] is: second compound 0.316 µM, first compound 10 µM.
Where [18] appears, read: second compound 1 µM, first compound 0.0316 µM.
The mark [19] stands for this setting: second compound 1 µM, first compound 0.1 µM.
Where [20] appears, read: second compound 1 µM, first compound 0.316 µM.
Where [21] appears, read: second compound 1 µM, first compound 1 µM.
[22] abbreviates: second compound 1 µM, first compound 3.16 µM.
[23] abbreviates: second compound 1 µM, first compound 10 µM.
Setting [24] is: second compound 3.16 µM, first compound 0.0316 µM.
[25] abbreviates: second compound 3.16 µM, first compound 0.1 µM.
Where [26] appears, read: second compound 3.16 µM, first compound 0.316 µM.
The mark [27] stands for this setting: second compound 3.16 µM, first compound 1 µM.
Setting [28] is: second compound 3.16 µM, first compound 3.16 µM.
The mark [29] stands for this setting: second compound 3.16 µM, first compound 10 µM.
The mark [30] stands for this setting: second compound 10 µM, first compound 0.0316 µM.
Setting [31] is: second compound 10 µM, first compound 0.1 µM.
Where [32] appears, read: second compound 10 µM, first compound 0.316 µM.
Where [33] appears, read: second compound 10 µM, first compound 1 µM.
Where [34] appears, read: second compound 10 µM, first compound 3.16 µM.
The mark [35] stands for this setting: second compound 10 µM, first compound 10 µM.

Regarding `COc1ccc([C@@H](O)c2cc(-c3ncnc4cc(N5CCOCC5)ccc34)c(F)cc2Cl)nn1`, the viability, T/C (compound 0.0316 µM) is 104% and 96.5% and 91.2%; the viability, T/C (compound 0.1 µM) was 101% and 96.4% and 97.7%; the viability, T/C (compound 0.316 µM) was 95.6% and 86.5% and 85%; the viability, T/C (compound 1 µM) was 76.2% and 70.7% and 63.6%; the viability, T/C (compound 3.16 µM) was 48.4% and 41.8% and 38.3%; the viability, T/C (compound 10 µM) was 23% and 23.6% and 18.7%. Further, under “curve of compound”, the IC50 is 2.93 µM and 2.29 µM and 1.85 µM.

Regarding `Nc1ncn(C2CC(O)C(CO)S2)c(=O)n1` (centres undefined) + CC(CO)NC(=O)c1cc(-c2ccc(Cl)cc2)nn(-c2cnn(C)c2)c1=O, the IC50 runs as follows: under setting [1], over 0.3 µM; under setting [2], over 0.3 µM; under setting [3], over 0.3 µM; under setting [4], over 0.3 µM; under setting [5], over 0.3 µM. The viability, T/C (second compound 0.1 µM, first compound 0.000949 µM) is 104%; the viability, T/C (second compound 0.1 µM, first compound 0.003 µM) was 110%; the viability, T/C (second compound 0.1 µM, first compound 0.00949 µM) is 106%; the viability, T/C (second compound 0.1 µM, first compound 0.03 µM) is 110%; the viability, T/C (second compound 0.1 µM, first compound 0.0949 µM) was 103%; the viability, T/C (second compound 0.1 µM, first compound 0.3 µM) was 85.3%. Also, the viability, T/C is 103% (second compound 0.316 µM, first compound 0.000949 µM); 109% (second compound 0.316 µM, first compound 0.003 µM); 109% (second compound 0.316 µM, first compound 0.00949 µM); 105% (second compound 0.316 µM, first compound 0.03 µM); 101% (second compound 0.316 µM, first compound 0.0949 µM); 84.6% (second compound 0.316 µM, first compound 0.3 µM). Further, the viability, T/C was 109% (second compound 1 µM, first compound 0.000949 µM); 112% (second compound 1 µM, first compound 0.003 µM); 113% (second compound 1 µM, first compound 0.00949 µM); 109% (second compound 1 µM, first compound 0.03 µM); 106% (second compound 1 µM, first compound 0.0949 µM); 91.9% (second compound 1 µM, first compound 0.3 µM). Further, the viability, T/C reads like this: (second compound 3.16 µM, first compound 0.000949 µM) 101%; (second compound 3.16 µM, first compound 0.003 µM) 104%; (second compound 3.16 µM, first compound 0.00949 µM) 102%; (second compound 3.16 µM, first compound 0.03 µM) 104%; (second compound 3.16 µM, first compound 0.0949 µM) 93.3%; (second compound 3.16 µM, first compound 0.3 µM) 83.5%. Further, the viability, T/C by setting is: (second compound 10 µM, first compound 0.000949 µM) 99.7%; (second compound 10 µM, first compound 0.003 µM) 101%; (second compound 10 µM, first compound 0.00949 µM) 98.9%; (second compound 10 µM, first compound 0.03 µM) 98.4%; (second compound 10 µM, first compound 0.0949 µM) 93%; (second compound 10 µM, first compound 0.3 µM) 86.2%.

As to `O=C(C=Cc1cccc(S(=O)(=O)Nc2ccccc2)c1)NO` + Cc1cncc(-c2nc(NCCc3c[nH]c4ccccc34)c3ncn(C(C)C)c3n2)c1, the IC50 under setting [1] amounted to 1.13 µM; the IC50 under setting [2] is 1.01 µM; the IC50 under setting [3] stood at 1.13 µM; the IC50 under setting [4] is 0.891 µM; the IC50 under setting [5] was under 0.0316 µM. Also, the viability, T/C is, setting by setting: under setting [6], 95.8%; under setting [7], 87.4%; under setting [8], 70.6%; under setting [9], 52.4%; under setting [10], 30.4%; under setting [11], 7.81%. Also, the viability, T/C was 95.1% under setting [12]; 88.1% under setting [13]; 70.2% under setting [14]; 52.1% under setting [15]; 24.9% under setting [16]; 6.95% under setting [17]. Moreover, the viability, T/C reads like this: under setting [18], 87.9%; under setting [19], 88.3%; under setting [20], 70%; under setting [21], 55.3%; under setting [22], 25.1%; under setting [23], 6.35%. Also, the viability, T/C runs as follows: under setting [24], 79.4%; under setting [25], 75.8%; under setting [26], 66%; under setting [27], 49%; under setting [28], 23.1%; under setting [29], 5.52%. For the same compound, the viability, T/C under setting [30] was 23.3%; the viability, T/C under setting [31] was 26.7%; the viability, T/C under setting [32] is 23.4%; the viability, T/C under setting [33] is 24.9%; the viability, T/C under setting [34] is 16.4%; the viability, T/C under setting [35] was 2.82%.

As to `COc1cc(C2c3cc4c(cc3C(OC3OC5COC(C)OC5C(O)C3O)C3COC(=O)C23)OCO4)cc(OC)c1O` (centres undefined), the viability, T/C (compound 0.0316 µM) is 96.3% and 99.9% and 103%; the viability, T/C (compound 0.1 µM) was 98.8% and 99.4% and 103%; the viability, T/C (compound 0.316 µM) is 90.1% and 91.7% and 91.1%; the viability, T/C (compound 1 µM) is 73.2% and 79.8% and 64.9%; the viability, T/C (compound 3.16 µM) was 50% and 52.3% and 41.3%; the viability, T/C (compound 10 µM) is 37.2% and 34.4% and 30.3%. In addition, the IC50 (curve of compound) was 3.12 µM and 3.79 µM and 2.03 µM.

As for `NS(=O)(=O)OCC1CC(n2ccc3c(NC4CCc5ccccc54)ncnc32)CC1O` (centres undefined) + Cc1ccccc1N=Nc1ccc(NC(=O)c2ccnn2C)c(C)c1, the IC50 came out at 0.201 µM under setting [1]; 0.178 µM under setting [2]; 0.141 µM under setting [3]; 0.0963 µM under setting [4]; 0.0946 µM under setting [5]. Besides, the viability, T/C is 96.4% under setting [6]; 66.9% under setting [7]; 40.8% under setting [8]; 16.2% under setting [9]; 9.98% under setting [10]; 10.5% under setting [11]. Moreover, the viability, T/C is 88.3% under setting [12]; 63.3% under setting [13]; 37.8% under setting [14]; 14.3% under setting [15]; 11.1% under setting [16]; 9.31% under setting [17]. The viability, T/C by setting is: under setting [18], 82.5%; under setting [19], 55.6%; under setting [20], 36.2%; under setting [21], 14.2%; under setting [22], 9.92%; under setting [23], 9.81%. Further, the viability, T/C is 66.6% under setting [24]; 47.7% under setting [25]; 32.2% under setting [26]; 12.7% under setting [27]; 9.52% under setting [28]; 8.47% under setting [29]. The viability, T/C under setting [30] was 69.5%; the viability, T/C under setting [31] is 47.7%; the viability, T/C under setting [32] was 29.2%; the viability, T/C under setting [33] is 11%; the viability, T/C under setting [34] is 7.66%; the viability, T/C under setting [35] was 7.56%.

As usually defined, the viability, T/C is the ratio of treated to control. As a reminder, the IC50 is the concentration needed to halve the response being measured.
